Reference: US9751858B2, “3-heteroaroylamino-propionic acid derivatives and their use as pharmaceuticals” (SANOFI, priority 2011, dated 2017)

target: T1, Recombinant human cathepsin A (Homo sapiens, UniProt P10619); test: Cathepsin A inhibitory activity; format: biochemical; conditions: activated recombinant human cathepsin A 833 ng/ml, Bodipy FL-labeled bradykinin 2 μM, pH 5.5, 15 min room temperature
T1 construct: Recombinant human cathepsin A (residues 29-480, with a C-terminal 10-His tag); 10-His (C); purchased R&D Systems 1049-SE
T1 sequence (P10619 29-326 limits assumed): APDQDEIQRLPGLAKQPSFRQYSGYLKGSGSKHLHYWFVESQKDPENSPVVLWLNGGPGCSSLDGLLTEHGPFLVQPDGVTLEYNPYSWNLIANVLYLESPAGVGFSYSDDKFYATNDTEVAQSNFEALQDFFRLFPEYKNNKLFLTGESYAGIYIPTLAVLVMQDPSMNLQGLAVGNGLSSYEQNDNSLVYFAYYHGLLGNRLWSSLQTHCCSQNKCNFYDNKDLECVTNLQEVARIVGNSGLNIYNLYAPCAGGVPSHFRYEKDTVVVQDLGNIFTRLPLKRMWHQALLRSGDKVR
T1 sequence (P10619 327-480 limits assumed): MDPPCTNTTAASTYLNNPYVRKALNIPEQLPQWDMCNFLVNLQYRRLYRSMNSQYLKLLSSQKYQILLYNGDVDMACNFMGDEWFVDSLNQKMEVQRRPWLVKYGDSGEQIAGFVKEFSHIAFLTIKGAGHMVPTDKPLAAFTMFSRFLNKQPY
Description: a) Cathepsin a Inhibitory Activity
Briefly, cathepsin A was incubated at 10 μg/ml with cathepsin L at 1 μg/ml in activation buffer (25 mM 2-(morpholin-4-yl)-ethanesulfonic acid (MES), pH 6.0, containing 5 mM dithiothreitol (DTT)) for 15 min at 37° C.
The activated cathepsin A was diluted in assay buffer (25 mM MES, pH 5.5, containing 5 mM DTT) and mixed with the test compound (dissolved in assay buffer containing (v/v) 3% DMSO) or, in the control experiments, with the vehicle in a multiple assay plate. After incubation for 15 min at room temperature, as substrate then bradykinin carrying an N-terminal ®Bodipy FL (4,4-difluoro-5,7-dimethyl-4-bora-3a,4a-diaza-s-indacene-3-propionyl) label (JPT Peptide Technologies GmbH; dissolved in assay buffer) was added to the mixture. […] After incubation for 15 min at room temperature the reaction was stopped by the addition of stop buffer (130 mM 2-(4-(2-hydroxy-ethyl)-piperazin-1-yl)-ethanesulfonic acid, pH 7.4, containing (v/v) 0.013%® Triton X-100, 0.13% Coating Reagent 3 (Caliper Life Sciences), 6.5% DMSO and 20 μM ebelactone B (Sigma, # E0886)).
Uncleaved substrate and product were then separated by a microfluidic capillary electrophoresis on a LabChip® 3000 Drug Discovery System (12-Sipper-Chip; Caliper Life Sciences) and quantified by determination of the respective peak areas. Substrate turnover was calculated by dividing product peak area by the sum of substrate and product peak areas, and the enzyme activity and the inhibitory effect of the test compound thus quantified.

IC50	SMILES
> 10000 nM	COc1cccc([C@H](CC(=O)O)NC(=O)c2nc(-c3ccccc3)oc2C(C)C)c1 [Example 65, (S)-3-[(5-Isopropyl-2-phenyl-oxazole-4-carbonyl)-amino]-3-(3-methoxy-phenyl)-propionic acid]
12500 nM	COc1cccc([C@H](CC(=O)O)NC(=O)c2nc(-c3ccccc3)oc2C)c1OC [Example 66, (S)-3-(2,3-Dimethoxy-phenyl)-3-[(5-methyl-2-phenyl-oxazole-4-carbonyl)-amino]-propionic acid]
1400 nM	CC(C)c1oc(-c2ccccc2)nc1C(=O)N[C@@H](CC(=O)O)c1ccccc1Cl [Example 67, (S)-3-(2-Chloro-phenyl)-3-[(5-isopropyl-2-phenyl-oxazole-4-carbonyl)-amino]-propionic acid]
14800 nM	O=C(O)CC(NC(=O)c1nc(-c2ccccc2)oc1C(F)(F)F)C1CCCCC1 (stereo not drawn) [Example 68, 3-Cyclohexyl-3-[(2-phenyl-5-trifluoromethyl-oxazole-4-carbonyl)-amino]-propionic acid]
387 nM	O=C(O)C[C@H](NC(=O)c1nc(-c2ccccc2)n(-c2ccccc2)n1)c1ccccc1 [Example 69, (S)-3-[(1,5-Diphenyl-1H-[1,2,4]triazole-3-carbonyl)-amino]-3-phenyl-propionic acid]
166 nM	CCc1nc(C(=O)N[C@@H](CC(=O)O)c2ccccc2C)nn1-c1ccccc1Cl [Example 70, (S)-3-{[1-(2-Chloro-phenyl)-5-ethyl-1H-[1,2,4]triazole-3-carbonyl]-amino}-3-o-tolyl-propionic acid]
492 nM	CCc1nc(C(=O)N[C@@H](CC(=O)O)c2ccc(C)cc2)nn1-c1ccccc1Cl [Example 71, (S)-3-{[1-(2-Chloro-phenyl)-5-ethyl-1H-[1,2,4]triazole-3-carbonyl]-amino}-3-p-tolyl-propionic acid]
> 10000 nM	COc1ccc([C@H](CC(=O)O)NC(=O)CCc2nc(-c3ccccc3F)no2)cc1 [Example 73, (S)-3-{3-[3-(2-Fluoro-phenyl)-[1,2,4]oxadiazol-5-yl]-propionylamino}-3-(4-methoxy-phenyl)-propionic acid]
610 nM	O=C(O)C[C@H](NC(=O)CCc1nc(-c2ccccc2F)no1)c1cccc(Cl)c1 [Example 74, (S)-3-(3-Chloro-phenyl)-3-{3-[3-(2-fluoro-phenyl)-[1,2,4]oxadiazol-5-yl]-propionylamino}-propionic acid]
1750 nM	Cc1oc(-c2ccccc2)nc1C(=O)N[C@@H](CC(=O)O)c1ccc(Cl)cc1Cl [Example 75, (S)-3-(2,4-Dichloro-phenyl)-3-[(5-methyl-2-phenyl-oxazole-4-carbonyl)-amino]-propionic acid]
590 nM	Cc1oc(-c2ccccc2)nc1C(=O)N[C@@H](CC(=O)O)c1cccc(Cl)c1Cl [Example 76, (S)-3-(2,3-Dichloro-phenyl)-3-[(5-methyl-2-phenyl-oxazole-4-carbonyl)-amino]-propionic acid]
1910 nM	Cc1ccccc1[C@H](CC(=O)O)NC(=O)c1nc(-c2ccccc2)oc1C(F)(F)F [Example 77, (S)-3-[(2-Phenyl-5-trifluoromethyl-oxazole-4-carbonyl)-amino]-3-o-tolyl-propionic acid]
8470 nM	Cc1oc(-c2ccccc2)nc1C(=O)N[C@@H](CC(=O)O)c1ccccc1C(F)(F)F [Example 78, (S)-3-[(5-Methyl-2-phenyl-oxazole-4-carbonyl)-amino]-3-(2-trifluoromethyl-phenyl)-propionic acid]
> 10000 nM	O=C(O)C[C@H](NC(=O)c1nc(-c2ccccc2)oc1C(F)(F)F)c1cccc(F)c1 [Example 79, (S)-3-(3-Fluoro-phenyl)-3-[(2-phenyl-5-trifluoromethyl-oxazole-4-carbonyl)-amino]-propionic acid]
11900 nM	O=C(O)C[C@H](NC(=O)c1noc(-c2ccccc2F)n1)c1ccccc1C(F)(F)F [Example 80, (S)-3-{[5-(2-Fluoro-phenyl)-[1,2,4]oxadiazole-3-carbonyl]-amino}-3-(2-trifluoromethyl-phenyl)-propionic acid]
> 10000 nM	O=C(O)C[C@H](NC(=O)c1noc(-c2ccccc2F)n1)c1cccc(C(F)(F)F)c1 [Example 81, (S)-3-{[5-(2-Fluoro-phenyl)-[1,2,4]oxadiazole-3-carbonyl]-amino}-3-(3-trifluoromethyl-phenyl)-propionic acid]
> 10000 nM	Cc1ccccc1[C@H](CC(=O)O)NC(=O)c1nc(C2CC2)n(-c2ccccc2Cl)n1 [Example 82, (S)-3-{[1-(2-Chloro-phenyl)-5-cyclopropyl-1H-[1,2,4]triazole-3-carbonyl]-amino}-3-o-tolyl-propionic acid]
> 10000 nM	Cc1ccc([C@H](CC(=O)O)NC(=O)c2nc(C3CC3)n(-c3ccccc3Cl)n2)cc1 [Example 83, (S)-3-{[1-(2-Chloro-phenyl)-5-cyclopropyl-1H-[1,2,4]triazole-3-carbonyl]-amino}-3-p-tolyl-propionic acid]
53.8 nM	Cc1ccccc1[C@H](CC(=O)O)NC(=O)c1nc(-c2ccccc2)n(-c2ccccc2)n1 [Example 84, (S)-3-[(1,5-Diphenyl-1H-[1,2,4]triazole-3-carbonyl)-amino]-3-o-tolyl-propionic acid]
280 nM	Cc1ccc([C@H](CC(=O)O)NC(=O)c2nc(C(C)C)n(-c3ccccc3Cl)n2)cc1 [Example 85, (S)-3-{[1-(2-Chloro-phenyl)-5-isopropyl-1H-[1,2,4]triazole-3-carbonyl]-amino}-3-p-tolyl-propionic acid]
2230 nM	O=C(O)CC(Cc1ccccc1)NC(=O)c1nc(-c2ccccc2)n(-c2ccccc2)n1 (stereo not drawn) [Example 86, 3-[(1,5-Diphenyl-1H-[1,2,4]triazole-3-carbonyl)-amino]-4-phenyl-butyric acid]
95 nM	Cc1ccccc1[C@H](CC(=O)O)NC(=O)c1nc(C(C)C)n(-c2ccccc2Cl)n1 [Example 87, (S)-3-{[1-(2-Chloro-phenyl)-5-isopropyl-1H-[1,2,4]triazole-3-carbonyl]-amino}-3-o-tolyl-propionic acid]
335 nM	CCCc1nc(C(=O)N[C@@H](CC(=O)O)c2ccc(C)cc2)nn1-c1ccccc1Cl [Example 88, (S)-3-{[1-(2-Chloro-phenyl)-5-propyl-1H-[1,2,4]triazole-3-carbonyl]-amino}-3-p-tolyl-propionic acid]
127 nM	CCCc1nc(C(=O)N[C@@H](CC(=O)O)c2ccccc2C)nn1-c1ccccc1Cl [Example 89, (S)-3-{[1-(2-Chloro-phenyl)-5-propyl-1H-[1,2,4]triazole-3-carbonyl]-amino}-3-o-tolyl-propionic acid]
353 nM	O=C(O)C[C@H](NC(=O)c1nc(-c2ccccc2)n(-c2ccccc2)n1)c1ccccc1F [Example 90, (S)-3-[(1,5-Diphenyl-1H-[1,2,4]triazole-3-carbonyl)-amino]-3-(2-fluoro-phenyl)-propionic acid]
517 nM	O=C(O)C[C@H](NC(=O)c1nc(-c2ccccc2)n(-c2ccccc2)n1)c1ccc(F)cc1 [Example 91, (S)-3-[(1,5-Diphenyl-1H-[1,2,4]triazole-3-carbonyl)-amino]-3-(4-fluoro-phenyl)-propionic acid]
1140 nM	Cc1oc(-c2ccccc2F)nc1C(=O)N[C@@H](CC(=O)O)c1cccc(C(F)(F)F)c1 [Example 92, (S)-3-{[2-(2-Fluoro-phenyl)-5-methyl-oxazole-4-carbonyl]-amino}-3-(3-trifluoromethyl-phenyl)-propionic acid]
944 nM	Cc1oc(-c2ccccc2F)nc1C(=O)N[C@@H](CC(=O)O)c1ccc(C(F)(F)F)cc1 [Example 93, (S)-3-{[2-(2-Fluoro-phenyl)-5-methyl-oxazole-4-carbonyl]-amino}-3-(4-trifluoromethyl-phenyl)-propionic acid]
514 nM	Cc1oc(-c2ccccc2F)nc1C(=O)N[C@@H](CC(=O)O)c1cccc(Cl)c1Cl [Example 94, (S)-3-(2,3-Dichloro-phenyl)-3-{[2-(2-fluoro-phenyl)-5-methyl-oxazole-4-carbonyl]-amino}-propionic acid]

SMILES	IC50
Cc1ccccc1[C@H](CC(=O)O)NC(=O)c1nn(Cc2ccccc2)c2ccccc12 [Example 72, (S)-3-[(1-Benzyl-1H-indazole-3-carbonyl)-amino]-3-o-tolyl-propionic acid]	171 nM
